Assay results as given in the NIST ThermoML archive (doi:10.1016/j.jct.2012.03.008).
Numbers after ± are expanded uncertainties. One block for each compound: values may come before it.

Conditions: Pendant drop shape

Structure (SMILES): CCCC[n+]1ccn(C)c1.O=S(=O)([N-]S(=O)(=O)C(F)(F)F)C(F)(F)F
surface tension liquid-gas (298.2 K): 33.35 ± 0.38 mN/m
surface tension liquid-gas (308.2 K): 32.85 ± 0.37 mN/m
surface tension liquid-gas (318.2 K): 32.25 ± 0.37 mN/m
surface tension liquid-gas (328.2 K): 31.69 ± 0.36 mN/m
surface tension liquid-gas (338.2 K): 31.14 ± 0.35 mN/m
surface tension liquid-gas (343.2 K): 30.76 ± 0.35 mN/m

surface tension liquid-gas (298.1 K): 43.81 ± 0.47 mN/m
surface tension liquid-gas (303.2 K): 43.44 ± 0.47 mN/m
surface tension liquid-gas (313.1 K): 42.72 ± 0.46 mN/m
surface tension liquid-gas (323.1 K): 42.19 ± 0.46 mN/m
surface tension liquid-gas (333.1 K): 41.61 ± 0.45 mN/m
surface tension liquid-gas (343.7 K): 41.07 ± 0.45 mN/m
Structure (SMILES): CCCCn1cc[n+](C)c1.F[P-](F)(F)(F)(F)F [1-butyl-3-methylimidazolium hexafluorophosphate]

surface tension liquid-gas (298 K): 45.44 ± 0.49 mN/m
surface tension liquid-gas (307.9 K): 44.57 ± 0.48 mN/m
surface tension liquid-gas (317.9 K): 43.91 ± 0.47 mN/m
surface tension liquid-gas (328.4 K): 43.15 ± 0.47 mN/m
surface tension liquid-gas (338.4 K): 42.49 ± 0.46 mN/m
surface tension liquid-gas (343.1 K): 42.17 ± 0.46 mN/m
Structure (SMILES): CCCCn1cc[n+](C)c1.F[B-](F)(F)F [1-butyl-3-methylimidazolium tetrafluoroborate]

surface tension liquid-gas (298.1 K): 35.86 ± 0.4 mN/m
surface tension liquid-gas (307.9 K): 35.29 ± 0.4 mN/m
surface tension liquid-gas (318 K): 34.95 ± 0.4 mN/m
surface tension liquid-gas (328.1 K): 34.64 ± 0.41 mN/m
surface tension liquid-gas (338.3 K): 34.3 ± 0.38 mN/m
Structure (SMILES): CCCCn1cc[n+](C)c1.O=S(=O)([O-])C(F)(F)F [1-butyl-3-methylimidazolium trifluoromethanesulfonate]

Structure (SMILES): CCn1cc[n+](C)c1.Cc1ccc(S(=O)(=O)[O-])cc1 [1-ethyl-3-methylimidazolium 4-methylbenzenesulfonate]
surface tension liquid-gas (308.1 K): 45.2 ± 0.6 mN/m
surface tension liquid-gas (318 K): 44.2 ± 0.6 mN/m
surface tension liquid-gas (328.5 K): 43.6 ± 0.6 mN/m
surface tension liquid-gas (338.3 K): 43 ± 0.6 mN/m
surface tension liquid-gas (343.2 K): 42.7 ± 0.6 mN/m

Structure (SMILES): CC(=O)[O-].CCn1cc[n+](C)c1 [1-ethyl-3-methylimidazolium acetate]
surface tension liquid-gas (298.1 K): 47.06 ± 0.5 mN/m
surface tension liquid-gas (308.2 K): 46.53 ± 0.5 mN/m
surface tension liquid-gas (318.2 K): 45.89 ± 0.49 mN/m
surface tension liquid-gas (328.2 K): 45.33 ± 0.48 mN/m
surface tension liquid-gas (338.3 K): 44.74 ± 0.48 mN/m

Structure (SMILES): CCn1cc[n+](C)c1.N#CN=C=[N-] [1-ethyl-3-methylimidazolium dicyanamide]
surface tension liquid-gas (298.3 K): 57.5 ± 0.8 mN/m
surface tension liquid-gas (308.2 K): 56.6 ± 1 mN/m
surface tension liquid-gas (318.3 K): 56.4 ± 0.8 mN/m
surface tension liquid-gas (328.2 K): 56 ± 0.7 mN/m
surface tension liquid-gas (338.5 K): 55 ± 0.8 mN/m
surface tension liquid-gas (343.4 K): 54.9 ± 0.8 mN/m

Structure (SMILES): CCn1cc[n+](C)c1.COP(=O)([O-])OC [1-ethyl-3-methylimidazolium dimethylphosphate]
surface tension liquid-gas (308.2 K): 45.3 ± 0.9 mN/m
surface tension liquid-gas (318 K): 44.7 ± 0.8 mN/m
surface tension liquid-gas (328.7 K): 44.4 ± 0.7 mN/m
surface tension liquid-gas (338.6 K): 43.8 ± 0.7 mN/m
surface tension liquid-gas (343.5 K): 43.3 ± 0.6 mN/m

Structure (SMILES): CCn1cc[n+](C)c1.CS(=O)(=O)[O-] [1-ethyl-3-methylimidazolium methanesulfonate]
surface tension liquid-gas (298.5 K): 50.9 ± 0.8 mN/m
surface tension liquid-gas (308 K): 50.3 ± 0.8 mN/m
surface tension liquid-gas (317.9 K): 49.7 ± 0.8 mN/m
surface tension liquid-gas (328.1 K): 49.1 ± 0.8 mN/m
surface tension liquid-gas (338.1 K): 48.1 ± 0.6 mN/m
surface tension liquid-gas (342.7 K): 47.7 ± 0.6 mN/m

Structure (SMILES): CCn1cc[n+](C)c1.CO[PH](=O)[O-] [1-ethyl-3-methylimidazolium methyl phosphonate]
surface tension liquid-gas (298.2 K): 49 ± 0.6 mN/m
surface tension liquid-gas (308.4 K): 48.3 ± 0.6 mN/m
surface tension liquid-gas (318 K): 47.9 ± 0.8 mN/m
surface tension liquid-gas (328.6 K): 47.2 ± 0.6 mN/m
surface tension liquid-gas (338.5 K): 46.7 ± 0.6 mN/m
surface tension liquid-gas (343.1 K): 46.3 ± 0.5 mN/m

Structure (SMILES): CCn1cc[n+](C)c1.N#C[S-] [1-ethyl-3-methylimidazolium thiocyanate]
surface tension liquid-gas (298.2 K): 53.3 ± 1 mN/m
surface tension liquid-gas (308.2 K): 52.3 ± 1 mN/m
surface tension liquid-gas (318.2 K): 51.8 ± 0.9 mN/m
surface tension liquid-gas (328.2 K): 50.5 ± 0.8 mN/m
surface tension liquid-gas (338.3 K): 49.8 ± 1.1 mN/m
surface tension liquid-gas (343.2 K): 49.4 ± 0.8 mN/m

Structure (SMILES): CCn1cc[n+](C)c1.O=S(=O)([O-])C(F)(F)F [1-ethyl-3-methylimidazolium trifluoromethanesulfonate]
surface tension liquid-gas (298.2 K): 41.3 ± 0.5 mN/m
surface tension liquid-gas (308.1 K): 41 ± 0.45 mN/m
surface tension liquid-gas (318.1 K): 40.48 ± 0.44 mN/m
surface tension liquid-gas (328.4 K): 39.9 ± 0.7 mN/m
surface tension liquid-gas (338.3 K): 39.5 ± 0.7 mN/m
surface tension liquid-gas (344.9 K): 39.3 ± 0.43 mN/m
